Test results taken from publication PMC9268552, “Synthesis of Pyrimidine Conjugates with 4-(6-Amino-hexanoyl)-7,8-difluoro-3,4-dihydro-3-methyl-2H-[1,4]benzoxazine and Evaluation of Their Antiviral Activity” (Molecules, 2022).
Values joined by “and” are separate entries in the source; they are usually repeats but may differ in a detail not shown here. Identical values can stand only once. Like-named read-outs stand apart in the source and are kept apart here.

Experiments:
[1] = tested on: influenza virus A/Puerto Rico/8/34 (H1N1); experiment: organism not typed; settings: MDCK, read-out: IC50 (50% inhibition of virus-induced CPE)
HSV-1/L2 [2] = experiment: Suppression of virus-induced cytopathogenic effect (CPE), reference strain HSV-1/L2 in Vero E6 cells; settings: for IC50: Human alphaherpesvirus 1, Vero C1008, read-out: IC50 (50% inhibition of virus-induced CPE)
Excerpt: (§1) The anti-herpesvirus activity of the synthesized compounds 5a–e was studied against the reference strain HSV-1/L2 and the acyclovir-resistant strain HSV-1/L2/R in the Vero E6 cells (Table 1) by suppressing the virus-induced cytopathogenic effect (CPE) as described previously. Acyclovir, Foscarnet (sodium phosphonoformate hexahydrate), a drug of choice in clinical practice in case of inefficiency of acyclovir and related compounds, including cases of drug resistance, and Ribavirin, were used as reference drugs. To assess the cytotoxicity of the studied compounds, the percentage of viable and non-viable cells was determined using Trypan blue exclusion assay.

[3] = tested on: influenza virus A/Puerto Rico/8/34 (H1N1); settings: influenza A/Puerto Rico/8/34 (H1N1); MDCK cells
[4] = Cytotoxicity in Vero E6 cells (Trypan blue exclusion assay); settings: African green monkey
Excerpt: as §1

HSV-1/L2/R [5] = experiment: microbe, parasite or virus in culture; settings: for SI (CC50/IC50): HSV-1/L2/R (acyclovir-resistant), Vero E6 cells; for IC50: Human alphaherpesvirus 1, Vero C1008, read-out: IC50 (50% inhibition of virus-induced CPE)
Excerpt: as §1

in vitro = settings: dog
HSV-1/L2 [6] = settings: cited from earlier work
Vero E6 cells = settings: read-out: CC50 ± SD, data for comparison, ref [27]; cited from earlier work
HSV-1/L2/R [7] = settings: HSV-1/L2/R (acyclovir-resistant); Vero E6 cells; data for comparison; ref [27]; cited from earlier work
[8] = tested on: influenza virus A/Puerto Rico/8/34 (H1N1); settings: influenza A/Puerto Rico/8/34 (H1N1), MDCK cells, data for comparison, ref [31], cited from earlier work
MDCK cells = settings: read-out: CC50 ± SD, data for comparison, ref [31]; cited from earlier work

Structure (SMILES) | IC50 [1] | SI (CC50/IC50) (HSV-1/L2 [2]; HSV-1/L2, Vero E6 cells) | IC50 (HSV-1/L2 [2]) | SI (CC50/IC50) [3] | CC50 [4] | SI (CC50/IC50) (HSV-1/L2/R [5]) | IC50 (HSV-1/L2/R [5]) | CC50 (in vitro) | melting point | other results
C[C@@H]1COc2c(ccc(F)c2F)N1C(=O)CCCCCNc1ccnc(N)n1.C[C@@H]1COc2c(ccc(F)c2F)N1C(=O)CCCCCNc1ccnc(N)n1.O.O.O (racemic) [(RS)-5a, (RS)-4-[6-(2-Aminopyrimidin-4-yl)aminohexanoyl]-7,8-difluoro-3,4-dihydro-3-methyl-2H-[1,4]benzoxazine Sesquihydrate] | 8 ± 1 µM | 8 and 8.1 | 18.6 µM | >1 | 151 ± 8.36 µM | 8 | 18.6 µM | 11 ± 1 µM |  | 
C[C@@H]1COc2c(ccc(F)c2F)N1C(=O)CCCCCNc1ncnc2[nH]ccc12.C[C@@H]1COc2c(ccc(F)c2F)N1C(=O)CCCCCNc1ncnc2[nH]ccc12.O (racemic) [(RS)-5e, (RS)-7,8-Difluoro-3,4-dihydro-3-methyl-4-[6-(7H-pyrrolo[2,3-d]pyrimidin-4-yl)aminohexanoyl]-2H-[1,4]benzoxazine Hemihydrate] | > 80 µM | <1 | 18.6 µM | 1 | 17.6 ± 0.85 µM | <1 | 18.6 µM | 86 ± 4 µM |  | 
C[C@H]1COc2c(ccc(F)c2F)N1C(=O)CCCCCNc1ncnc2[nH]cnc12 [(S)-1] |  |  |  |  |  |  |  |  |  | SI (CC50/IC50) (HSV-1/L2 [6]; Vero E6 cells, data for comparison, ref [27]): 64; IC50 (HSV-1/L2 [6]; read-out: IC50 (50% inhibition of virus-induced CPE), Vero E6 cells, data for comparison, ref [27]): 4.6 µM; CC50 (Vero E6 cells): 293 ± 15.5 µM; SI (CC50/IC50) (HSV-1/L2/R [7]): 64 ^1; SI (CC50/IC50) [8]: >2 ^1; IC50 ([8]; read-out: IC50 (50% inhibition of virus-induced CPE)): > 10 µM; CC50 (MDCK cells): 24 ± 1 µM
CCC(CC)O[C@@H]1C=C(C(=O)O)C[C@H](N)[C@H]1NC(C)=O [Oseltamivir carboxylate, reference compound] | 0.3 µM |  |  | >667 |  |  |  | > 200 µM |  | 
CC1COc2c(ccc(F)c2F)N1C(=O)CCCCCNc1cc(Cl)ncn1 (racemic) [(RS)-5c, (RS)-4-[6-(6-Chloropyrimidin-4-yl)aminohexanoyl]-7,8-difluoro-3,4-dihydro-3-methyl-2H-[1,4]benzoxazine] | > 8 µM | >2.0 | 148 µM | 1 | > 304 µM | 2 | 152 µM | 9 ± 1 µM | 101 to 103 °C | 
CC1COc2c(ccc(F)c2F)N1C(=O)CCCCCNc1cc(Cl)nc(N)n1 (racemic) [(RS)-5b, (RS)-4-[6-(2-Amino-6-chloropyrimidin-4-yl)aminohexanoyl]-7,8-difluoro-3,4-dihydro-3-methyl-2H-[1,4]benzoxazine] | 92 ± 11 µM | 3.7 | 73.4 µM | <8 | 275 ± 4.3 µM | <4 | 73.4 µM | 705 ± 42 µM | 92 to 94 °C | 
Nc1nc2c(ncn2COCCO)c(=O)[nH]1 [Acyclovir, reference compound] |  |  | 1.73 µM |  | > 444 µM | 1 | > 444 µM |  |  | SI (CC50/IC50) (HSV-1/L2 [2]): >256
CC1COc2c(ccc(F)c2F)N1C(=O)CCCCCNc1ncccn1 (racemic) [(RS)-5d, (RS)-7,8-Difluoro-3,4-dihydro-3-methyl-4-[6-(pyrimidin-2-yl)aminohexanoyl]-2H-[1,4]benzoxazine] | > 88 µM | 1.7 | 297 µM |  | 505 ± 17.7 µM | <2 | 297 µM | 257 ± 12 µM | 106 to 108 °C | 
NC(=O)c1ncn([C@@H]2O[C@H](CO)[C@@H](O)[C@H]2O)n1 [Ribavirin, reference compound] |  |  | 1020 µM |  | > 4100 µM | >4 | 1020 µM |  |  | SI (CC50/IC50) (HSV-1/L2 [2]): >4
C[C@H]1COc2c(ccc(F)c2F)N1C(=O)CCCCCNc1ccnc(N)n1.O (hydrate or solvate) [(S)-5a, (S)-4-[6-(2-Aminopyrimidin-4-yl)aminohexanoyl]-7,8-difluoro-3,4-dihydro-3-methyl-2H-[1,4]benzoxazine Hydrate] |  |  |  |  |  |  |  |  | 78 to 80 °C | 
C[C@@H]1COc2c(ccc(F)c2F)N1C(=O)CCCCCNc1ncnc2[nH]ccc12.C[C@@H]1COc2c(ccc(F)c2F)N1C(=O)CCCCCNc1ncnc2[nH]ccc12.O (racemic) (hydrate or solvate) [(RS)-5e, (RS)-7,8-Difluoro-3,4-dihydro-3-methyl-4-[6-(7H-pyrrolo[2,3-d]pyrimidin-4-yl)aminohexanoyl]-2H-[1,4]benzoxazine Hemihydrate] |  |  |  |  |  |  |  |  | 86 to 88 °C | 
C[C@H]1COc2c(ccc(F)c2F)N1C(=O)CCCCCNc1ncnc2[nH]ccc12 [(S)-5e, (3S)-7,8-Difluoro-3,4-dihydro-3-methyl-4-[6-(7H-pyrrolo[2,3-d]pyrimidin-4-yl)aminohexanoyl]-2H-[1,4]benzoxazine] | > 26 µM | 6 and 6.3 | 74.2 µM | <2 | 469 ± 10.8 µM | 6 | 75.2 µM | 47 ± 3 µM | 87 to 89 °C | 
C[C@@H]1COc2c(ccc(F)c2F)N1C(=O)CCCCCNc1ccnc(N)n1.C[C@@H]1COc2c(ccc(F)c2F)N1C(=O)CCCCCNc1ccnc(N)n1.O.O.O (racemic) (hydrate or solvate) [(RS)-5a, (RS)-4-[6-(2-Aminopyrimidin-4-yl)aminohexanoyl]-7,8-difluoro-3,4-dihydro-3-methyl-2H-[1,4]benzoxazine Sesquihydrate] |  |  |  |  |  |  |  |  | 59 to 60 °C | 
O=C(O)P(=O)(O)O [Foscarnet, sodium phosphonoformate hexahydrate, reference compound] |  |  | 104 µM |  | > 417 µM | >4 | 104 µM |  |  | SI (CC50/IC50) (HSV-1/L2 [2]): >4
C[C@H]1COc2c(ccc(F)c2F)N1C(=O)CCCCCNc1ccnc(N)n1.O [(S)-5a, (S)-4-[6-(2-Aminopyrimidin-4-yl)aminohexanoyl]-7,8-difluoro-3,4-dihydro-3-methyl-2H-[1,4]benzoxazine Hydrate] | 7 ± 1 µM | 3.7 | 9.27 µM | >3 | 34.6 ± 0.88 µM | <4 | 9.27 µM | 23 ± 1.2 µM |  | 
